Measured values published in patent US20200055871A1, “ACTIVATORS OF THE RETINOIC ACID INDUCIBLE GENE "RIG-I" PATHWAY AND METHODS OF USE THEREOF” (Kineta Immuno-Oncology LLC, priority 2018, published 2020).

Columns and labels:
[1] = test system: murine CT26 colon carcinoma cells; assay: RIG-I dependent CXCL10 secretion by CT26 cells (ELISA); assay type: cell-based; details: 10 μM compound, supernatant 24 h after stimulation
In short: (§1)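 CT26 murine colon carcinoma cells, parental or CRISPR RIG-I−/−, seeded and grown 24 hr at 37° C, then treated with compounds at 10 μM, or at 5 or 20 μM for some. Secreted CXCL10 measured by ELISA in supernatants 24 h after treatment and reported in pg/mL bands.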

[2] = test system: IRF3 signaling pathway in THP1-Lucia™ ISG cells; assay: THP1-Lucia ISG reporter assay: induction of IRF3-dependent gene expression (secreted luciferase); assay type: cell-based, human; details: 10 μM compound, PMA-differentiated cells, 18 h after stimulation
In short: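 PMA-differentiated THP-1 reporter cells (ISRE/ISG54 promoter driving secreted luciferase), plus CRISPR IRF3−/− line, treated with compounds at 5–20 μM (mostly 10 μM). Luciferase measured 18 h later; values are fold increase over untreated background, binned from <2.4 to ≥40.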

[3] = test system: IRF3-deficient THP1-Lucia™ ISG IRF3−/− cells; assay: THP1-Lucia ISG IRF3−/− reporter assay (IRF3-deficient control cells); assay type: cell-based, human; details: compound 5 to 20 μM, 18 h
Experimental: The promoter was comprised of five IFN-stimulated response elements (ISRE) fused to an ISG54 minimal promoter which is unresponsive to NF-kB or AP-1 pathways. […] The IRF3-deficient THP1-Lucia™ ISG IRF3−/−reporter cell line was generated by CRISPR technology from the parent THP1-Lucia™ ISG reporter cell line.
THP1-Lucia™ ISG cells and IRF3-deficient THP1-Lucia™ ISG IRF3−/−cells were differentiated with PMA (100 ng/ml) and stimulated with compounds at the indicated concentrations (5 to 20 μM), positive control, or not treated (background). Luciferase secretion was quantified using the QUANTI-Luc luciferase assay system (InvivoGen) 18 h after stimulation. Data are shown as fold increase luciferase activity over background in Table 7 and represent the IRF3-dependent ISG54 promoter activity by the THP1-Lucia™ ISG cells in response to compounds. […] The fold increase of compounds (10 μM, *20 μM, **5 μM) induced IRF3 dependent luciferase activity is indicated as follows: “≠” indicates less than 2.4 fold increase; “+” indicates a 2.4-4.9 fold increase; “++” indicates a 5-9.9 fold increase; “+++” indicates a 10-19 fold increase; “++++” indicates a 20-39 fold increase; “+++++” indicates greater than or equal to 40 fold increase.

[4] = test system: RIG-I deficient CT26 RIG-I−/− cells; assay: CXCL10 secretion by RIG-I deficient CT26 RIG-I−/− cells (ELISA); assay type: cell-based, murine; details: compound 5 to 20 μM, 24 h; also: key: −: about 0 pg/mL of CXCL10, or below the level of quantitation
In short: as §1

[5] = test system: murine CT26 colon carcinoma cells; assay: Compound-induced immunogenic cell death: apoptosis (Annexin V) and calreticulin translocation by flow cytometry; assay type: cell-based; details: 18 h after treatment, dose titration, FIG. 1
Experimental: To determine if the RIG-I agonist compounds induce immunogenic cell death in cancer cells, induction of apoptosis and the translocation of calreticulin (CRT) to the cell surface in murine CT26 colon carcinoma cells were evaluated. The translocation of CRT occurs as part of a specific RIG-I dependent danger-signaling system, and the presence of CRT on the cell membrane promotes tumor antigen uptake by the dendritic cells and leads to the induction of an antigen-specific T cell response
The induction of apoptosis and the CRT translocation were measured by flow cytometry. […] Cells were harvested 18 h after treatment and then prepared for flow cytometry using an Annexin V staining kit (Biolegend) for quantification of apoptosis, an anti-CRT antibody (Abgent) for calreticulin translocation, and the Live/Dead-Violet staining kit (Thermofisher) for cell viability. Induction of apoptosis and translocation of calreticulin (CRT) to cell surface by live cells was determined by tri-color flow cytometry using FITC-labeled Annexin V, Live/Dead-iolet (LDV), and APC-anti-CRT. Apoptotic cells were defined as Annexin V^+ and calreticulin translocation to cell surface was quantified by mean fluorescent intensity (MFI) of calreticulin^+ live cells (CRT^+ LDV^−). […]

Molecule | CXCL10 secretion, CT26 [1] | fold increase of IRF3-dependent luciferase activity over background, THP1 ISG [2] | fold increase of luciferase activity, THP1 ISG IRF3−/− [3] | CXCL10 secretion, CT26 RIG-I−/− [4] | induction of immunogenic cell death (apoptosis, calreticulin translocation to cell surface) [5]
N-{5,12-dithia-3-azatricyclo[7.3.0.0^2,^6]dodeca-1,3,6,8,10-pentaen-11-yl}-3-[4-(morpholin-4-yl)butoxy]-[1,1′-biphenyl]-4-carboxamide [Example 62] | ++++ (800 to 1599 pg/mL) | +++ (a 10-19 fold increase) | − (less than 0.5 fold above baseline was considered below the level of quantitation) | − | induction of immunogenic cell death
O=C(Nc1cc2ccc3scnc3c2s1)c1cc2ccccc2cc1OCCN1CCOCC1 [Example 55, N-{5,12-dithia-3-azatricyclo[7.3.0.0^2,^6]dodeca-1,3,6,8,10-pentaen-11-yl}-3-[2-(morpholin-4-yl)ethoxy]naphthalene-2-carboxamide] | ≠ (less than 100 pg/mL) | +++ (a 10-19 fold increase) | − (less than 0.5 fold above baseline was considered below the level of quantitation) | − | 
O=C(Nc1nc2ccc3ocnc3c2s1)c1cc2ccccc2cc1OCCCCN1CCOCC1 [Example 53, 3-[4-(morpholin-4-yl)butoxy]-N-{10-oxa-3-thia-5,12-diazatricyclo [7.3.0.0^2,^6]dodeca-1,4,6,8,11-pentaen-4-yl}naphthalene-2-carboxamide] | +++++ (greater than or equal to 1600 pg/ml) | ++ (a 5-9.9 fold increase) | − (less than 0.5 fold above baseline was considered below the level of quantitation) | − | 
